Experiments:
[1] = biological target: recombinant human SGK-1 enzyme (Homo sapiens, UniProt O00141); test: Enzymatic activity assay: SGK-1 substrate peptide phosphorylation (Caliper lab-chip mobility shift); assay type: biochemical; details: peptide substrate 1 μM, ATP 10 μM, 60 min at 37° C., read-out: IC50 values for inhibition of SGK-1 enzymatic activity
[2] = test system: SGK-1 dependent phosphorylation of GSK3beta in U2OS cells; test: SGK-1 dependent phosphorylation of GSK3beta in U2OS cells overexpressing recombinant SGK-1 and GSK3beta; assay type: cell-based, human; details: U2OS cells, 6 h incubation, ratio of phosphorylated GSK3beta to total GSK3beta; read-out: IC50 values for inhibition of SGK-1 dependent phosphorylation of GSK3beta in U2OS cells

Chain of recombinant human SGK-1 enzyme (O00141 whole entry, looked up): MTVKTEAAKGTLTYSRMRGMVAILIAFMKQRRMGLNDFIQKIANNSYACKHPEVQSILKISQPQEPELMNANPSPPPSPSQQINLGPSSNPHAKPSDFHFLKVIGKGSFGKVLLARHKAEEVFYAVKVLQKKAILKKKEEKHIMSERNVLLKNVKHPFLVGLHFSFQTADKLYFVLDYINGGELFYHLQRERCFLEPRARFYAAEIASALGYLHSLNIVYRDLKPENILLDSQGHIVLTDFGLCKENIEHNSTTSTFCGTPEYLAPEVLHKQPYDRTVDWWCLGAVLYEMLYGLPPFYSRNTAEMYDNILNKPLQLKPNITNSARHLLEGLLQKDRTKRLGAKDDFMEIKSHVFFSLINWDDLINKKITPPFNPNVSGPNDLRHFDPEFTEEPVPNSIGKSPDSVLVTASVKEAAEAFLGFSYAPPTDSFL

Structure (SMILES) | IC50 [1] [nM] | IC50 [2] [nM]
Cc1n[nH]c2nc(-c3ccc(NS(=O)(=O)c4ccccc4F)cc3)nc(OC3CCNCC3F)c12 (stereo not drawn) [Example 297] | 1.8 | 80
Cc1ccc(F)c(S(=O)(=O)Nc2ccc(-c3nc(OC4CCNCC4F)c4c(C)n[nH]c4n3)cc2)c1 (stereo not drawn) [Example 298] | 2.3 | 43
Cc1n[nH]c2nc(-c3ccc(NS(=O)(=O)c4cc(Cl)ccc4C#N)cc3)nc(OC3CCNCC3F)c12 (stereo not drawn) [Example 299] | 3.3 | 410
Cc1ccc(C#N)c(S(=O)(=O)Nc2ccc(-c3nc(OC4CCNCC4F)c4c(C)n[nH]c4n3)cc2)c1 (stereo not drawn) [Example 300] | 1.1 | 92
COc1ccc(F)c(S(=O)(=O)Nc2ccc(-c3nc(OC4CCNCC4F)c4c(C)n[nH]c4n3)cc2)c1 (stereo not drawn) [Example 302] | 1.9 | 86
Cc1n[nH]c2nc(-c3ccc(NS(=O)(=O)c4cc(Cl)ccc4Cl)cc3)nc(OC3CCNCC3F)c12 (stereo not drawn) [Example 303] | 2.2 | 57
COc1ccc(Cl)c(S(=O)(=O)Nc2ccc(-c3nc(OC4CCNCC4F)c4c(C)n[nH]c4n3)cc2)c1 (stereo not drawn) [Example 304] | 2.3 | 130
O=S(=O)(Nc1ccc(-c2nc(OCC3CNCCO3)c3cn[nH]c3n2)cc1)c1cc(Cl)ccc1F (stereo not drawn) [Example 305] | 10 | 89
COc1ccc(Cl)c(S(=O)(=O)Nc2ccc(-c3nc(OCC4CNCCO4)c4cn[nH]c4n3)cc2)c1 (stereo not drawn) [Example 306] | 7.1 | 19
COc1ccc(F)c(S(=O)(=O)Nc2ccc(-c3nc(OCC4CNCCO4)c4cn[nH]c4n3)cc2)c1 (stereo not drawn) [Example 309] | 2.8 | 160
O=S(=O)(Nc1ccc(-c2nc(OCC3CNCCO3)c3cn[nH]c3n2)cc1)c1cc(F)ccc1F (stereo not drawn) [Example 311] | 240 | 92
O=S(=O)(Nc1ccc(-c2nc(OCC3CNCCO3)c3cn[nH]c3n2)cc1)c1cc(Cl)ccc1Cl (stereo not drawn) [Example 312] | 6 | 130
Cc1n[nH]c2nc(-c3ccc(NS(=O)(=O)c4cc(Cl)ccc4Cl)cc3)nc(OCC3CNCCO3)c12 (stereo not drawn) [Example 313] | 2 | 47
Cc1ccc(C#N)c(S(=O)(=O)Nc2ccc(-c3nc(OC4CCN(C)CC4)c4cn[nH]c4n3)cc2)c1 [Example 314] | 4.5 | 250
Cc1ccc(C#N)c(S(=O)(=O)Nc2ccc(-c3nc(OCC4CNCCO4)c4cn[nH]c4n3)cc2)c1 (stereo not drawn) [Example 315] | 7.9 | 600
CC(C)COc1nc(-c2ccc(NS(=O)(=O)c3ccccc3Cl)cc2)nc2[nH]nc(N)c12 [Example 316] | 480 | 270
COc1ccc(Cl)c(S(=O)(=O)Nc2ccc(-c3nc(OC4CCCNC4)c4c(C)n[nH]c4n3)cc2)c1 (stereo not drawn) [Example 319] | 4.5 | 31
Cc1ccc(C#N)c(S(=O)(=O)Nc2ccc(-c3nc(OC4CCCNC4)c4c(C)n[nH]c4n3)cc2)c1 (stereo not drawn) [Example 320] | 3.7 | 57
Cc1n[nH]c2nc(-c3ccc(NS(=O)(=O)c4ccccc4F)cc3)nc(OC3CCCNC3)c12 (stereo not drawn) [Example 323] | 12 | 100
CC(C)COc1nc(-c2ccc(NS(=O)(=O)c3cccc(F)c3Cl)cc2)nc2[nH]nc(N)c12 [Example 324] | 330 | 330

Structure (SMILES) | IC50 [1] [nM] | IC50 [2] [nM]
COc1ccc(F)c(S(=O)(=O)Nc2ccc(-c3nc(OCC(C)C)c4c(N)n[nH]c4n3)cc2)c1 [Example 326] | 9.1 | 160
CC(C)COc1nc(-c2ccc(NS(=O)(=O)c3cccc(Cl)c3F)cc2)nc2[nH]nc(N)c12 [Example 327] | 420 | 430
CC(C)COc1nc(-c2ccc(NS(=O)(=O)c3cc(Cl)sc3Cl)cc2)nc2[nH]nc(N)c12 [Example 330] | 100 | 230
CC(C)COc1nc(-c2ccc(NS(=O)(=O)c3ccccc3F)cc2)nc2[nH]nc(N)c12 [Example 331] | 290 | 240
COc1ccc(Cl)c(S(=O)(=O)Nc2ccc(-c3nc(OCC(C)C)c4c(N)n[nH]c4n3)cc2)c1 [Example 332] | 27 | 190
Cc1ccc(C#N)c(S(=O)(=O)Nc2ccc(-c3nc(OCC(C)C)c4c(N)n[nH]c4n3)cc2)c1 [Example 333] | 14 | 1300
CC(C)COc1nc(-c2ccc(NS(=O)(=O)c3cc(Cl)ccc3F)cc2)nc2[nH]nc(N)c12 [Example 334] | 20 | 720
CC(C)Oc1nc(-c2ccc(NS(=O)(=O)c3cc(Cl)ccc3Cl)cc2)nc2[nH]nc(N)c12 [Example 335] | 8.3 | 350
COc1ccc(C#N)c(S(=O)(=O)Nc2ccc(-c3nc(OCC(C)C)c4c(N)n[nH]c4n3)cc2)c1 [Example 336] | 5.5 | 190
Cc1ccc(F)c(S(=O)(=O)Nc2ccc(-c3nc(OC4CCCNC4)c4c(C)n[nH]c4n3)cc2)c1 (stereo not drawn) [Example 338] | 1.6 | 44
Cc1n[nH]c2nc(-c3ccc(NS(=O)(=O)c4cc(Cl)ccc4F)cc3)nc(OC3CCCNC3)c12 (stereo not drawn) [Example 339] | 1.3 | 45
COc1ccc(Cl)c(S(=O)(=O)Nc2ccc(-c3nc(OC4CCN(CCF)CC4)c4c(C)n[nH]c4n3)cc2)c1 [Example 341] | 4.9 | 63
Cc1n[nH]c2nc(-c3ccc(NS(=O)(=O)c4cc(Cl)ccc4Cl)cc3)nc(OC3CCN(CCF)CC3)c12 [Example 342] | 6 | 280
Cc1ccc(C#N)c(S(=O)(=O)Nc2ccc(-c3nc(OC4CCN(CCF)CC4)c4c(C)n[nH]c4n3)cc2)c1 [Example 343] | 3.8 | 68
Cc1n[nH]c2nc(-c3ccc(NS(=O)(=O)c4cc(Cl)ccc4Cl)c(F)c3)ncc12 [Example 434] | 1.8 | 3500
O=S(=O)(Nc1ccc(-c2nc(N3CC(O)C3)c3cn[nH]c3n2)cc1F)c1cc(Cl)ccc1Cl [Example 437] | 100 | 1800
O=S(=O)(Nc1ccc(-c2nc(N3CCC(O)C3)c3cn[nH]c3n2)cc1F)c1cc(Cl)ccc1Cl (stereo not drawn) [Example 438] | 85 | 7800
O=S(=O)(Nc1ccc(-c2nc(N3CC(CO)C3)c3cn[nH]c3n2)cc1F)c1cc(Cl)ccc1F [Example 441] | 21 | 11000
O=S(=O)(Nc1ccc(-c2nc(OC3CNC3)c3cn[nH]c3n2)cc1F)c1cc(Cl)ccc1F [Example 442] | 29 | 1300
O=S(=O)(Nc1ccc(-c2nc(C3CC3)c3cn[nH]c3n2)cc1F)c1cc(Cl)ccc1F [Example 443] | 94 | 320

Structure (SMILES) | IC50 [1] [nM] | IC50 [2] [nM]
Nc1n[nH]c2nc(-c3ccc(NS(=O)(=O)c4cc(Cl)ccc4Cl)cc3)ncc12 [Example 452] | 2 | 980
Cc1ccc(F)c(S(=O)(=O)Nc2ccc(-c3ncc4c(N)n[nH]c4n3)cc2)c1 [Example 455] | < 1.5 | 390
N#Cc1c(Cl)cccc1S(=O)(=O)Nc1ccc(-c2ncc3c(N)n[nH]c3n2)cc1 [Example 456] | 6.2 | 8900
Nc1n[nH]c2nc(-c3ccc(NS(=O)(=O)c4cc5c(cc4Br)OCCCO5)cc3)ncc12 [Example 459] | 6.7 | 4000
Nc1n[nH]c2nc(-c3ccc(NS(=O)(=O)c4cc(Cl)sc4Cl)cc3)ncc12 [Example 463] | 2.5 | 120
Cc1nc(-c2ccc(NS(=O)(=O)c3cc(Cl)ccc3F)cc2)nc2[nH]nc(N)c12 [Example 466] | < 1.5 | 260
Cc1nc(-c2ccc(NS(=O)(=O)c3cccc(Cl)c3C#N)cc2)nc2[nH]nc(N)c12 [Example 470] | 11 | 2000
Cc1ccc(F)c(S(=O)(=O)Nc2ccc(-c3nc(C)c4c(N)n[nH]c4n3)cc2)c1 [Example 472] | 1.5 | 330
Cc1ccc(C#N)cc1S(=O)(=O)Nc1ccc(-c2nc(C)c3c(N)n[nH]c3n2)cc1 [Example 473] | 32 | 8200
Cc1nc(-c2ccc(NS(=O)(=O)c3cccc(F)c3C#N)cc2)nc2[nH]nc(N)c12 [Example 474] | 12 | 11000
Cc1nc(-c2ccc(NS(=O)(=O)c3cc4c(cc3Cl)OCCCO4)cc2)nc2[nH]nc(N)c12 [Example 476] | 3.9 | 3000
Cc1nc(-c2ccc(NS(=O)(=O)c3cc4c(cc3Br)OCCCO4)cc2)nc2[nH]nc(N)c12 [Example 477] | 4.8 | 4500
Cc1nc(-c2ccc(NS(=O)(=O)c3cc(F)cc(F)c3Cl)cc2)nc2[nH]nc(N)c12 [Example 479] | 16 | 280
COc1ccc(Cl)c(S(=O)(=O)Nc2ccc(-c3nc(C)c4cn[nH]c4n3)cc2)c1 [Example 491] | 1.8 | 2000
Cc1nc(-c2ccc(NS(=O)(=O)c3cc(Cl)ccc3C#N)cc2)nc2[nH]nc(N3CCCC4(COC4)C3)c12 [Example 499] | 8.9 | 8800
Nc1n[nH]c2nc(-c3ccc(NS(=O)(=O)c4cc(Cl)sc4Cl)cc3)nc(C3CC3)c12 [Example 500] | 2.7 | 250
COCCc1nc(-c2ccc(NS(=O)(=O)c3cc(Cl)c(F)cc3F)cc2)nc2[nH]nc(N)c12 [Example 501] | 40 | 450
COCCc1nc(-c2ccc(NS(=O)(=O)c3cc(OC)ccc3Cl)cc2)nc2[nH]nc(N)c12 [Example 502] | 18 | 420
COCCc1nc(-c2ccc(NS(=O)(=O)c3cc(C)ccc3F)cc2)nc2[nH]nc(N)c12 [Example 503] | 29 | 630
COCCc1nc(-c2ccc(NS(=O)(=O)c3cc(OC)ccc3F)cc2)nc2[nH]nc(N)c12 [Example 504] | 12 | 300

— patent publication US9718825B2, “N-(4-(azaindazol-6-yl)-phenyl)-sulfonamides and their use as pharmaceuticals” (priority 2013, dated 2017)
